{"source": "patent US20210222177A1", "about": "“THERAPEUTIC AGENT FOR CARTILAGE-RELATED DISEASE” (ONO PHARMACEUTICAL CO., LTD., priority 2018, published 2021)", "test_system": "Normal human knee joint chondrocytes", "assay": "Evaluation of chondrocyte differentiation promoting action (chondrocyte pellet culture)", "assay_type": "cell-based", "conditions": "ASO final concentration 1000 nmol/L with calcium chloride 9 mmol/L, pellet-cultured for 10 days, versus Vehicle group", "protocol": "Normal human knee joint chondrocytes (Lonza Walkersville, Inc.) were thawed and cultured (culture conditions; 5% CO2, 37° C., 95% Air, the same conditions applies hereafter.) in a subculture medium (DMEM/F-12+glutaMAX, included in set of chondrocyte addition factors (Lonza Walkersville, Inc.)). Diluted subculture was performed after subconfluent, and two days after subculture, the culture was treated with antisense oligonucleotides against SIK2 and SIK3 (hereinafter SIK2 ASO; ACAACAACTGCACTTT (SEQ ID NO: 1) and SIK3 ASO; GGTTAGTGCCACGTTG (SEQ ID NO: 6)) in the presence of calcium chloride (9 mmol/L) (final concentration 1000 nmol/L). […] Chondrocyte pellets were imaged using Opera Phenix High Content Screening System (PerkinElmer), and pellet size (area of the pellet image) was calculated using an attached analysis software Harmony. The chondrocyte pellets after imaging were frozen in liquid nitrogen, crushed using AUTOMILL (Tokken, inc.), and then total RNA was extracted using RNeasy Plus Mini Kit (QIAGEN N.V.). cDNA was synthesized from a total RNA solution using High Capacity cDNA Reverse Transcription Kit, and expression level of each gene was measured by real-time polymerase chain reaction (PCR) method using TaqMan Fast Universal PCR Master Mix (2×) (Life Technologies Corporation) and Primer-Probe (COL2A1 assay ID: Hs01060345_m1, COL1A2 assay ID: Hs01028970_m1) of each gene. […]", "data": [{"substance": "SIK2 ASO: SIK2 antisense oligonucleotide, ACAACAACTGCACTTT (SEQ ID NO: 1) (listed as DNA, chemistry not given here)", "values": [{"measurement": "cartilage differentiation markers COL2A1/COL1A2", "setting": "real-time PCR, FIG. 2", "value": "increased"}, {"measurement": "chondrocyte pellet size (area of the pellet image)", "setting": "t-test, FIG. 1", "value": "significantly increased"}]}]}
